According to patent USRE39591E1, “6-O-substituted ketolides having antibacterial activity” (Abbott Laboratories, priority 1996, dated 2007):
In brackets after ≈: the same amount, converted by molar mass.

System: up to 32 different microorganisms
Assay: in vitro antibacterial activity (MIC), agar dilution on Brain Heart Infusion (BHI) agar with Steers replicator
Format: cell-based
Conditions: unit assumed
Description: Representative compounds of the present invention were assayed in vitro for antibacterial activity as follows: Twelve petri dishes containing successive aqueous dilutions of the test compound mixed with 10 mL of sterilized Brain Heart Infusion (BHI) agar (Difco 0148-01-5) were prepared. Each plate was inoculated with 1:100 (or 1:10 for slow-growing strains, such as Micrococcus and Streptococcus) dilutions of up to 32 different microorganisms, using a Steers replicator block. The inoculated plates were incubated at 35°-37° C. for 20 to 24 hours. In addition, a control plate, using BHI agar containing no test compound, was prepared and incubated at the beginning and end of each test.
An additional plate containing a compound having known susceptibility patterns for the organisms being tested and belonging to the same antibiotic class as the test compound was also prepared and incubated as a further control, as well as to provide test-to-test comparability. Erythromycin A was used for this purpose.
After incubation, each plate was visually inspected. The minimum inhibitory concentration (MIC) was defined as the lowest concentration of drug yielding no growth, a slight haze, or sparsely isolated colonies on the inoculum spot as compared to the growth control.

[1] = Candida albicans CCH 442 (code TT)
[2] = Enterococcus faecism ATCC 8043 (code II)
[3] = Escherichia coli DC-2 (code SS)
[4] = Escherichia coli JUHL (code QQ)
[5] = Haemophilis influenzae DILL AMP R (code WW)
[6] = Micrococcus luteus ATCC 4698 (code PP)
[7] = Micrococcus luteus ATCC 9341 (code OO)
[8] = Mycobacterium smegmatis ATCC 114 (code UU)
[9] = Nocardia Asteroides ATCC9970 (code VV)
[10] = Staphylococcus aureus 1775 (code GG)
[11] = Staphylococcus aureus A5177 (code BB)
[12] = Staphylococcus aureus A-5278 (code CC)
[13] = Staphylococcus aureus ATCC 6538P (code AA)
[14] = Staphylococcus aureus CMX 553 (code FF)
[15] = Staphylococcus aureus CMX 642A (code DD)
[16] = Staphylococcus aureus NCTC10649M (code EE)
[17] = Staphylococcus epidermidis 3519 (code HH)
[18] = Streptococcus Pneumonia 5649 (code ZZA)
[19] = Streptococcus Pneumonia 5979 (code ZZ)
[20] = Streptococcus Pneumonia ATCC6303 (code XX)
[21] = Streptococcus Pneumonia GYR 1171 (code YY)
[22] = Streptococcus agalactiae CMX 508 (code KK)
[23] = Streptococcus bovis A-5169 (code JJ)
[24] = Streptococcus pyogenes 930 (code MM)
[25] = Streptococcus pyogenes EES61 (code LL)
[26] = Streptococcus pyogenes PIU 2548 (code NN)

## CCC1OC(=O)C(C)C(=O)C(C)C(OC2OC(C)CC(N(C)C)C2O)C(C)(OCC=Cc2cncc3ccccc23)CC(C)C(=O)C(C)C2NC(=O)OC12C (stereo not drawn) [Example 187, R is —CH2CH═CH-(4-isoquinolinyl)]
[1]
  MIC: > 100 µg/mL
[2]
  MIC: 0.02 µg/mL (≈ 0.0261 µM)
[3]
  MIC: > 100 µg/mL
[4]
  MIC: 100 µg/mL (≈ 131 µM)
Escherichia coli SS (code RR)
  MIC: 0.39 µg/mL (≈ 0.509 µM)
[5]
  MIC: 2 µg/mL (≈ 2.61 µM)
[6]
  MIC: 0.02 µg/mL (≈ 0.0261 µM)
[7]
  MIC: 0.02 µg/mL (≈ 0.0261 µM)
[8]
  MIC: 0.78 µg/mL (≈ 1.02 µM)
[9]
  MIC: 0.1 µg/mL (≈ 0.131 µM)
[10]
  MIC: > 100 µg/mL
[11]
  MIC: 0.1 µg/mL (≈ 0.131 µM)
[12]
  MIC: > 100 µg/mL
[13]
  MIC: 0.2 µg/mL (≈ 0.261 µM)
[14]
  MIC: 0.1 µg/mL (≈ 0.131 µM)
[15]
  MIC: 0.1 µg/mL (≈ 0.131 µM)
[16]
  MIC: 0.1 µg/mL (≈ 0.131 µM)
[17]
  MIC: 0.1 µg/mL (≈ 0.131 µM)
[18]
  MIC: 0.25 µg/mL (≈ 0.326 µM)
[19]
  MIC: > 16 µg/mL
[20]
  MIC: 0.03 µg/mL (≈ 0.0392 µM)
[21]
  MIC: 0.03 µg/mL (≈ 0.0392 µM)
[22]
  MIC: 0.02 µg/mL (≈ 0.0261 µM)
[23]
  MIC: ≤ 0.005 µg/mL
[24]
  MIC: 25 µg/mL (≈ 32.6 µM)
[25]
  MIC: 0.01 µg/mL (≈ 0.0131 µM)
[26]
  MIC: 0.1 µg/mL (≈ 0.131 µM)

## CC[C@H]1OC(=O)[C@H](C)C(=O)[C@H](C)[C@@H](O[C@@H]2O[C@H](C)C[C@H](N(C)C)[C@H]2O)[C@@](C)(OCC=Cc2ccc(Cl)cc2)C[C@@H](C)C(=O)[C@H](C)[C@H]2OC(=O)O[C@@]21C [Example 74, Compound of Formula (IX): L is CO, T is O, R is —CH2CH═CH-(4-chlorophenyl)]
[1]
  MIC: > 100 µg/mL
[2]
  MIC: 0.1 µg/mL
[3]
  MIC: > 100 µg/mL
[4]
  MIC: > 100 µg/mL
Escherichia coli SS (code RR)
  MIC: 3.3 µg/mL
[5]
  MIC: 4 µg/mL
[6]
  MIC: 0.2 µg/mL
[7]
  MIC: 0.05 µg/mL
[8]
  MIC: 0.39 µg/mL
[9]
  MIC: 0.39 µg/mL
[10]
  MIC: > 100 µg/mL
[11]
  MIC: 0.2 µg/mL
[12]
  MIC: > 100 µg/mL
[13]
  MIC: 0.2 µg/mL
[14]
  MIC: 0.2 µg/mL
[15]
  MIC: 0.2 µg/mL
[16]
  MIC: 0.2 µg/mL
[17]
  MIC: 0.2 µg/mL
[18]
  MIC: 0.5 µg/mL
[19]
  MIC: 32 µg/mL
[20]
  MIC: 0.125 µg/mL
[21]
  MIC: 0.125 µg/mL
[22]
  MIC: 0.05 µg/mL
[23]
  MIC: 0.05 µg/mL
[24]
  MIC: 50 µg/mL
[25]
  MIC: 0.05 µg/mL
[26]
  MIC: 0.39 µg/mL

## CCC1OC(=O)C(C)C(=O)C(C)C(OC2OC(C)CC(N(C)C)C2O)C(C)(OCC=Cc2ccc3[nH]c4ccccc4c3c2)CC(C)C(=O)C(C)C2NC(=O)OC12C (stereo not drawn) [Example 204, R is —CH2CH═CH-(3-carbazolyl)]
Organism code AA
  MIC: 0.1 µg/mL (≈ 0.124 µM)
Organism code BB
  MIC: 0.1 µg/mL (≈ 0.124 µM)
Organism code CC
  MIC: > 100 µg/mL
Organism code DD
  MIC: 0.1 µg/mL (≈ 0.124 µM)
Organism code EE
  MIC: 0.1 µg/mL (≈ 0.124 µM)
Organism code FF
  MIC: 0.1 µg/mL (≈ 0.124 µM)
Organism code GG
  MIC: > 100 µg/mL
Organism code HH
  MIC: 0.1 µg/mL (≈ 0.124 µM)
Organism code II
  MIC: 0.05 µg/mL (≈ 0.0622 µM)
Organism code JJ
  MIC: 0.01 µg/mL (≈ 0.0124 µM)
Organism code KK
  MIC: 0.01 µg/mL (≈ 0.0124 µM)
Organism code LL
  MIC: 0.01 µg/mL (≈ 0.0124 µM)
Organism code MM
  MIC: 3.1 µg/mL (≈ 3.86 µM)
Organism code NN
  MIC: 0.2 µg/mL (≈ 0.249 µM)
Organism code OO
  MIC: 0.02 µg/mL (≈ 0.0249 µM)
Organism code PP
  MIC: 0.1 µg/mL (≈ 0.124 µM)
Organism code QQ
  MIC: > 100 µg/mL
Organism code RR
  MIC: 0.78 µg/mL (≈ 0.97 µM)
Organism code SS
  MIC: > 100 µg/mL
Organism code TT
  MIC: > 100 µg/mL
Organism code UU
  MIC: 0.78 µg/mL (≈ 0.97 µM)
Organism code VV
  MIC: 0.1 µg/mL (≈ 0.124 µM)
Organism code WW
  MIC: 4 µg/mL (≈ 4.98 µM)
Organism code XX
  MIC: 0.06 µg/mL (≈ 0.0746 µM)
Organism code YY
  MIC: 0.06 µg/mL (≈ 0.0746 µM)
Organism code ZZ
  MIC: 8 µg/mL (≈ 9.95 µM)
Organism code ZZA
  MIC: 0.5 µg/mL (≈ 0.622 µM)
